The source of these data is US11970497B2, “Tricyclic AKR1C3 dependent KARS inhibitors” (Novartis AG, priority 2019, dated 2024).

Experiment [1] concerns H460 (NRF2 pathway mutant cell line with high AKR1C3 expression). Briefly: In vitro cell proliferation assay (CellTiter-Glo), H460. It is filed as cell-based. As to conditions: Homo sapiens, NCI-H460, 72 h; H460 cells, 3 days, CellTiter-Glo, top concentration 10 μM; read-out: H460 Qualified absolute AC50. Put shortly:
(§1)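 Luminescent CellTiter-Glo readout after 3-day compound exposure at 37 °C; 8-point 1:5 series, top 10 μM final. Seeding: 800 cells/well for H460, 2000 cells/well for Hara, RPMI-1640 plus 10% FBS. AC50 and percentage activity derived after normalizing to DMSO (1%) and MG132 (30 μM) controls.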
In general terms: Cellular ATP, detected with luciferase, serves as a proxy for viable cell number.

Experiment [2] deals with Hara (NRF2 pathway wild type cell line with low AKR1C3 expression). The experiment in a line: In vitro cell proliferation assay (CellTiter-Glo), Hara. It is filed as cell-based. The following applies: 72 h; Hara cells, 3 days, CellTiter-Glo, top concentration 10 μM; read-out: HARA Qualified absolute AC50. Summed up:
as §1

The AC50 is the concentration at which the activity in the assay is half-maximal. As for `Nc1c(F)cc(CNC(=O)N2CCC3(CC2)CC(=O)c2cc(F)ccc2N3)cc1F` [Example 65, N-(4-amino-3,5-difluorobenzyl)-6′-fluoro-4′-oxo-3′,4′-dihydro-1′H-spiro[piperidine-4,2′-quinoline]-1-carboxamide], the values for the AC50 in experiment [1] and in experiment [2] were 222 nM and over 10000 nM, respectively.

Regarding `COCCNc1cc(F)ccc1CNC(=O)N1CCC2(CC1)CC(=O)c1cc(F)ccc1N2C` [Example 20, 6′-fluoro-N-(4-fluoro-2-((2-methoxyethyl)amino)benzyl)-1′-methyl-4′-oxo-3′,4′-dihydro-1′H-spiro[piperidine-4,2′-quinoline]-1-carboxamide], the concentration at half-maximal activity (AC50) in experiment [1] was 33 nM; in experiment [2], over 10000 nM.

In the case of `CNC(=O)c1cc(CNC(=O)N2CCC3(CC2)CC(=O)c2cc(F)ccc2N3)ccc1F` [Example 64, 6′-fluoro-N-(4-fluoro-3-(methylcarbamoyl)benzyl)-4′-oxo-3′,4′-dihydro-1′H-spiro[piperidine-4,2′-quinoline]-1-carboxamide], the AC50 is 222 nM in experiment [1] and over 10000 nM in experiment [2].

For the molecule `Nc1cc(F)c(CNC(=O)N2CCC3(CC2)CC(=O)c2cc(F)ccc2N3)c(F)c1` [Example 80, N-(4-amino-2,6-difluorobenzyl)-6′-fluoro-4′-oxo-3′,4′-dihydro-1′H-spiro[piperidine-4,2′-quinoline]-1-carboxamide], the results for the half-maximal activity concentration (AC50) in experiment [1] and in experiment [2] were 347 nM and over 10000 nM, respectively.

As for `O=C1CC2(CCN(C(=O)NCc3ccc(F)cc3Cl)CC2)Nc2ccc(F)cc21` [Example 68, N-(2-chloro-4-fluorobenzyl)-6′-fluoro-4′-oxo-3′,4′-dihydro-1′H-spiro[piperidine-4,2′-quinoline]-1-carboxamide], the results for the AC50 in experiment [1] and in experiment [2] were 226 nM and 9140 nM, respectively.

For the molecule `CCN1c2ccc(F)cc2C(=O)CC12CCN(C(=O)NCc1ccc(F)c(NCCO)c1F)CC2` [Example 75, N-(2,4-difluoro-3-((2-hydroxyethyl)amino)benzyl)-1′-ethyl-6′-fluoro-4′-oxo-3′,4′-dihydro-1′H-spiro[piperidine-4,2′-quinoline]-1-carboxamide], the half-maximal activity concentration (AC50) was 306 nM in experiment [1] and over 10000 nM in experiment [2].

Turning to `O=C1CC2(CCN(C(=O)NCc3cnoc3)CC2)Nc2ccc(F)cc21` [Example 107, 6′-fluoro-N-(isoxazol-4-ylmethyl)-4′-oxo-3′,4′-dihydro-1′H-spiro[piperidine-4,2′-quinoline]-1-carboxamide], the AC50 in experiment [1] was 612 nM; in experiment [2], over 10000 nM.

As to `Cc1occc1CNC(=O)N1CCC2(CC1)CC(=O)c1cc(F)cc(F)c1N2` [Example 10, 6′,8′-difluoro-N-((2-methylfuran-3-yl)methyl)-4′-oxo-3′,4′-dihydro-1′H-spiro[piperidine-4,2′-quinoline]-1-carboxamide], the figures for the concentration at half-maximal activity (AC50) in experiment [1] and in experiment [2] were 21 nM and 5410 nM, respectively.

Take `O=C1CC2(CCN(C(=O)NCc3ccc(F)cc3)CC2)N(CCO)c2ccc(F)cc21` [Example 19, 6′-fluoro-N-(4-fluorobenzyl)-1′-(2-hydroxyethyl)-4′-oxo-3′,4′-dihydro-1′H-spiro[piperidine-4,2′-quinoline]-1-carboxamide]: the AC50 is 31 nM in experiment [1] and 694 nM in experiment [2].

Turning to `COCCOc1cc(CNC(=O)N2CCC3(CC2)CC(=O)c2cc(F)ccc2N3C)ccc1F` [Example 21, 6′-fluoro-N-(4-fluoro-3-(2-methoxyethoxy)benzyl)-1′-methyl-4′-oxo-3′,4′-dihydro-1′H-spiro[piperidine-4,2′-quinoline]-1-carboxamide], the AC50 in experiment [1] was 34 nM; in experiment [2], over 10000 nM.

Consider `O=C1CC2(CCN(C(=O)NCc3cc(NCCO)c(F)cc3F)CC2)Nc2ccc(F)cc21` [Example 77, N-(2,4-difluoro-5-((2-hydroxyethyl)amino)benzyl)-6′-fluoro-4′-oxo-3′,4′-dihydro-1′H-spiro[piperidine-4,2′-quinoline]-1-carboxamide], for which the results for the AC50 in experiment [1] and in experiment [2] were 311 nM and over 10000 nM, respectively.

Take `O=C1CC2(CCN(C(=O)NCc3ccc(OC(F)F)c(F)c3)CC2)Nc2c(F)cc(F)cc21` [Example 108, N-(4-(difluoromethoxy)-3-fluorobenzyl)-6′,8′-difluoro-4′-oxo-3′,4′-dihydro-1′H-spiro[piperidine-4,2′-quinoline]-1-carboxamide]: the AC50 in experiment [1] was found to be 646 nM; in experiment [2] it was 3180 nM.

On to `O=C1CC2(CCN(C(=O)NCc3cccc4nonc34)CC2)Nc2ccc(F)cc21` [Example 141, N-(benzo[c][1,2,5]oxadiazol-4-ylmethyl)-6′-fluoro-4′-oxo-3′,4′-dihydro-1′H-spiro[piperidine-4,2′-quinoline]-1-carboxamide], for which the AC50 in experiment [1] is 2450 nM; in experiment [2], over 10000 nM.

With `O=C1CC2(CCN(C(=O)NCc3ccc(F)cc3O)CC2)Nc2ccc(F)cc21` [Example 43, 6′-fluoro-N-(4-fluoro-2-hydroxybenzyl)-4′-oxo-3′,4′-dihydro-1′H-spiro[piperidine-4,2′-quinoline]-1-carboxamide], the half-maximal activity concentration (AC50) in experiment [1] was 99 nM; in experiment [2], over 10000 nM.

For `NS(=O)(=O)c1cccc(CNC(=O)N2CCC3(CC2)CC(=O)c2cc(F)ccc2N3)c1` [Example 74, 6′-fluoro-4′-oxo-N-(3-sulfamoylbenzyl)-3′,4′-dihydro-1′H-spiro[piperidine-4,2′-quinoline]-1-carboxamide], the AC50 in experiment [1] is 305 nM; in experiment [2] it was over 10000 nM.

On to `CN1c2ccc(F)cc2C(=O)CC12CCN(C(=O)NCc1cc(NCCO)c(F)cc1F)CC2` [Example 17, N-(2,4-difluoro-5-((2-hydroxyethyl)amino)benzyl)-6′-fluoro-1′-methyl-4′-oxo-3′,4′-dihydro-1′H-spiro[piperidine-4,2′-quinoline]-1-carboxamide], for which the concentration at half-maximal activity (AC50) in experiment [1] is 30 nM; in experiment [2], over 10000 nM.

As to `Nc1cc(F)ccc1CNC(=O)N1CCC2(CC1)CC(=O)c1cc(F)ccc1N2` [Example 137, N-(2-amino-4-fluorobenzyl)-6′-fluoro-4′-oxo-3′,4′-dihydro-1′H-spiro[piperidine-4,2′-quinoline]-1-carboxamide], the results for the AC50 in experiment [1] and in experiment [2] were 2030 nM and over 10000 nM, respectively.

In the case of `Nc1ccc(CNC(=O)N2CCC3(CC2)CC(=O)c2cc(F)ccc2N3)c(Cl)c1` [Example 111, N-(4-amino-2-chlorobenzyl)-6′-fluoro-4′-oxo-3′,4′-dihydro-1′H-spiro[piperidine-4,2′-quinoline]-1-carboxamide], the concentration at half-maximal activity (AC50) in experiment [1] is 733 nM; in experiment [2] it was over 10000 nM.

For the molecule `COc1cc(F)ccc1CNC(=O)N1CCC2(CC1)CC(=O)c1cc(F)ccc1N2C` [Example 2, 6′-fluoro-N-(4-fluoro-2-methoxybenzyl)-1′-methyl-4′-oxo-3′,4′-dihydro-1′H-spiro[piperidine-4,2′-quinoline]-1-carboxamide], the figures for the concentration at half-maximal activity (AC50) in experiment [1] and in experiment [2] were 5 nM and over 10000 nM, respectively.

On to `Nc1ccc(CNC(=O)N2CCC3(CC2)CC(=O)c2cc(F)ccc2N3)cc1Cl` [Example 87, N-(4-amino-3-chlorobenzyl)-6′-fluoro-4′-oxo-3′,4′-dihydro-1′H-spiro[piperidine-4,2′-quinoline]-1-carboxamide], for which the AC50 in experiment [1] is 388 nM; in experiment [2], over 10000 nM.
